The record followed here is PubChem BioAssay (NCI).

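Assay format: 96-well plates, 48-hour exposure. GI50: concentration for 50% inhibition of growth. TGI: concentration producing complete growth inhibition.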

The first test relates to IGROV1 ovarian. In words: NCI tumour cell line growth inhibition, 48 h.
The compound `CC(=O)Oc1cc2c(cc1OC(C)=O)OCC(c1ccccc1)C2` (stereo unspecified) showed a TGI of 74.1 µM.
The compound `OCCNCCN1CCN(CCCN2c3ccccc3Sc3ccc(C(F)(F)F)cc32)CC1` gave a TGI greater than 100 µM.
On the same count and under the same terms, then `O=C(O)c1cc2c(ncc3c(=O)n(-c4ccccc4)[nH]c32)s1`, with greater than 100 µM; and `O=C(CCl)NNC1=Nc2ccc(Cl)cc2SC1`, with 3.58 µM.
Same read-out and setting: next, `CCCc1c(-c2ccccc2)[nH]c2ccccc2c1=O`: greater than 100 µM.
Still for that read-out and setting: next, `Cc1ccc(C2OC(COCc3ccc(Cl)cc3)C(OCc3ccc(Cl)cc3)C2O)cc1` (stereo unspecified): 35.5 µM.
`C[N+](C)(C)CCc1ccccc1` displayed a TGI greater than 100 µM.
Still for that read-out and setting: next, `COc1c(Br)cc2c(c1OC)C(Br)CCC(Br)(Br)C2=O` (stereo unspecified): 5.76 µM; `O=C1C=CC2(C=C1)O[C@H](Cc1ccccc1)[C@@H](Cc1ccccc1)O2`: 0.583 µM; `CCCNC(=O)C(C)C1CCC2(C)C=CC(=O)C(C)=C2C1O` (stereo unspecified): greater than 100 µM.
Same read-out and setting: next, `O=C(Nc1nc2ccc([N+](=O)[O-])cc2s1)C(=O)C(C(=O)c1ccccc1F)C1OC(=O)c2ccccc21` (stereo unspecified): greater than 100 µM.
Compound `Nc1ccn(C2C=C(CO)C(O)C2O)c(=O)c1` (stereo unspecified) showed a TGI greater than 625 µM.
On the same count and under the same terms, next, `COc1nc(=O)n(COC(CO)CN2C(=O)c3ccccc3C2=O)cc1Cc1cccc(OCc2ccccc2)c1` (stereo unspecified): 58.8 µM.

The subject of another test is OVCAR-8 ovarian. In words: NCI tumour cell line growth inhibition, 48 h.
Compound `N#C[C@H](OC1OC(COC2OC(CO)C(O)C(O)C2O)C(O)C(O)C1O)c1ccccc1` (stereo partly specified) yielded a TGI greater than 250 µM.
Still for that read-out and setting: then `CCN(CC)c1ccc2cc(C(=O)Nc3ccc4[nH]c(C(=O)N5C[C@@H](CCl)c6c5cc(OC(=O)Nc5ccccc5)c5[nH]cc(C)c65)cc4c3)oc2c1`, with greater than 1000 µM.
In the case of `Cn1c(=O)c2[nH]c(CCNC(=O)c3ccccc3)nc2n(C)c1=O`, the TGI was greater than 100 µM.
Still for that read-out and setting: then `Cc1cc(S(=O)(=O)Nc2nc3ccccc3nc2-c2cccc([N+](=O)[O-])c2)c(S)cc1Cl`, with 80.9 µM; and `O=c1ssc(=Nc2ccccc2)n1-c1ccccc1`, with 32.7 µM.
Still for that read-out and setting: then `NCCSS(=O)(=O)CCN`, with greater than 100 µM.
The same measure, in the same setting: next, `CC(=O)Oc1cc2c(cc1OC(C)=O)OCC(c1ccccc1)C2` (stereo unspecified): 73.5 µM; `OCCNCCN1CCN(CCCN2c3ccccc3Sc3ccc(C(F)(F)F)cc32)CC1`: 31.9 µM.
Regarding `O=C(O)c1cc2c(ncc3c(=O)n(-c4ccccc4)[nH]c32)s1`, the TGI was greater than 100 µM.
The compound `O=C(CCl)NNC1=Nc2ccc(Cl)cc2SC1` came in with a TGI of 2.02 µM.
Same read-out and setting: next, `Cc1ccc(C2OC(COCc3ccc(Cl)cc3)C(OCc3ccc(Cl)cc3)C2O)cc1` (stereo unspecified): 36.9 µM.
On the same count and under the same terms, next, `C[N+](C)(C)CCc1ccccc1`: greater than 100 µM; `COc1c(Br)cc2c(c1OC)C(Br)CCC(Br)(Br)C2=O` (stereo unspecified): 1.53 µM.
Same read-out and setting: next, `O=C1C=CC2(C=C1)O[C@H](Cc1ccccc1)[C@@H](Cc1ccccc1)O2`: 0.503 µM; `CCCNC(=O)C(C)C1CCC2(C)C=CC(=O)C(C)=C2C1O` (stereo unspecified): greater than 100 µM; `O=C(Nc1nc2ccc([N+](=O)[O-])cc2s1)C(=O)C(C(=O)c1ccccc1F)C1OC(=O)c2ccccc21` (stereo unspecified): greater than 100 µM.
On to `Nc1ccn(C2C=C(CO)C(O)C2O)c(=O)c1` (stereo unspecified), for which the TGI is greater than 625 µM.
The compound `COc1nc(=O)n(COC(CO)CN2C(=O)c3ccccc3C2=O)cc1Cc1cccc(OCc2ccccc2)c1` (stereo unspecified) registered a TGI greater than 100 µM.

The subject of the next test is SR leukemia. In words: NCI tumour cell line growth inhibition, 48 h.
In turn, `Cn1c(=O)c2[nH]c(CCNC(=O)c3ccccc3)nc2n(C)c1=O` yielded a TGI greater than 100 µM.
Same read-out and setting: next, `Cc1cc(S(=O)(=O)Nc2nc3ccccc3nc2-c2cccc([N+](=O)[O-])c2)c(S)cc1Cl`: 47.4 µM; `O=c1ssc(=Nc2ccccc2)n1-c1ccccc1`: 40.9 µM; `NCCSS(=O)(=O)CCN`: greater than 100 µM.
Still for that read-out and setting: then `OCCNCCN1CCN(CCCN2c3ccccc3Sc3ccc(C(F)(F)F)cc32)CC1`, with greater than 100 µM; and `O=C(O)c1cc2c(ncc3c(=O)n(-c4ccccc4)[nH]c32)s1`, with greater than 100 µM; and `CCCc1c(-c2ccccc2)[nH]c2ccccc2c1=O`, with greater than 100 µM.
As to `Cc1ccc(C2OC(COCc3ccc(Cl)cc3)C(OCc3ccc(Cl)cc3)C2O)cc1` (stereo unspecified), the TGI was greater than 100 µM.
Consider `CO/N=C(/C)c1ccc(NC(=O)CSc2nnc(-c3ccncc3)n2-c2ccccc2)cc1`, for which the GI50 is greater than 100 µM and the TGI is greater than 100 µM.
As for `C[N+](C)(C)CCc1ccccc1`, the TGI is greater than 100 µM.
Same read-out and setting: next, `COc1c(Br)cc2c(c1OC)C(Br)CCC(Br)(Br)C2=O` (stereo unspecified): 1.29 µM; `O=C1C=CC2(C=C1)O[C@H](Cc1ccccc1)[C@@H](Cc1ccccc1)O2`: 3.26 µM.
On the same count and under the same terms, then `O=C(Nc1nc2ccc([N+](=O)[O-])cc2s1)C(=O)C(C(=O)c1ccccc1F)C1OC(=O)c2ccccc21` (stereo unspecified), with 54.2 µM.

A further test concerns NCI-H522 lung. In words: NCI tumour cell line growth inhibition, 48 h.
Consider `N#C[C@H](OC1OC(COC2OC(CO)C(O)C(O)C2O)C(O)C(O)C1O)c1ccccc1` (stereo partly specified), for which the TGI is greater than 250 µM.
`CCN(CC)c1ccc2cc(C(=O)Nc3ccc4[nH]c(C(=O)N5C[C@@H](CCl)c6c5cc(OC(=O)Nc5ccccc5)c5[nH]cc(C)c65)cc4c3)oc2c1`: the GI50 is 438 µM and the TGI was greater than 1000 µM.
Turning to `Cn1c(=O)c2[nH]c(CCNC(=O)c3ccccc3)nc2n(C)c1=O`, the TGI is greater than 100 µM.
The same measure, in the same setting: next, `Cc1cc(S(=O)(=O)Nc2nc3ccccc3nc2-c2cccc([N+](=O)[O-])c2)c(S)cc1Cl`: 38.9 µM; `NCCSS(=O)(=O)CCN`: greater than 100 µM.
In turn, `CC(=O)Oc1cc2c(cc1OC(C)=O)OCC(c1ccccc1)C2` (stereo unspecified) yielded a TGI of 7.47 µM.
As to `OCCNCCN1CCN(CCCN2c3ccccc3Sc3ccc(C(F)(F)F)cc32)CC1`, the TGI was 36.6 µM.
The compound `O=C(O)c1cc2c(ncc3c(=O)n(-c4ccccc4)[nH]c32)s1` yielded a TGI greater than 100 µM.
The same measure, in the same setting: next, `O=C(CCl)NNC1=Nc2ccc(Cl)cc2SC1`: 1.85 µM.
On the same count and under the same terms, then `C[N+](C)(C)CCc1ccccc1`, with greater than 100 µM.
